Converted amounts (≈) assume the structure as drawn. The source made the active and inactive calls. The calls are words filed in the database; no cut-off is given here. Bridge positions count the residues as written; N and C are the ends. Square brackets hold non-standard residues; d marks the D form. Peptide text beside a SMILES is read from it. * marks the point of attachment. ξ: configuration not given here. Hexanoyl(4ξ-Me) = CCC(C)CCC(=O)*; X2 = CC(C)=CCC/C(C)=C/C(=O)*; X3 = CC[C@H](C)CCCCC(=O)*; dDab = NCC[C@@H](N)C(=O)O; X1 = CCC(C)CCC(O)CC(=O)*; Dab = NCC[C@H](N)C(=O)O
Legend:
Candida albicans [1] = assay: Antifungal activity against Candida albicans SC5314 after 48 hrs; format: functional; conditions: SC5314, 48 h
Lipid bilayer = assay: Disruption of phosphatidylcholine/ phosphatidylinositol/phosphatidylethanolamine membrane at 200 uM by colorimetric assay
Erythrocyte = assay: Haemolytic activity in human RBC incubated for 2 hrs; format: ADME, cell-based
[2] = Toxicity in iv dosed Kunming mouse assessed as death counted daily for 14 days; format: organism-based; conditions: in vivo
HEK293 = assay: Cytotoxicity against HEK293 cells after 48 hrs by MTT assay; format: cell-based; conditions: human, hek293, 48 h
Candida albicans [3] = assay: Induction of eradication of 48 hrs old preformed Candida albicans SC5314 biofilm up to 125 uM after 24 to 48 hrs by XTT assay; format: functional, organism-based
Candida albicans [4] = assay: Induction of morphological changes in Candida albicans SC5314 assessed as disruption of fungal cell walls at 0.5 to 10 times MIC after 45 mins by Uranyl acetate/Lead citrate staining based transmission electron microscopic analysis; format: functional, organism-based
Candida albicans [5] = assay: Induction of eradication of 24 hrs old preformed Candida albicans SC5314 biofilm after 24 to 48 hrs by XTT assay; format: functional
Candida albicans [6] = assay: Induction of morphological changes in Candida albicans SC5314 assessed as disruption of fungal cell membranes at 0.5 to 10 times MIC after 45 mins by Uranyl acetate/Lead citrate staining based transmission electron microscopic analysis; format: functional, organism-based
Candida albicans [7] = assay: Induction of morphological changes in Candida albicans SC5314 assessed as necrosis of cytoplasm at 0.5 to 10 times MIC after 45 mins by Uranyl acetate/Lead citrate staining based transmission electron microscopic analysis; format: functional, organism-based
Candida albicans [8] = assay: Antibiofilm activity against Candida albicans SC5314 incubated for overnight by XTT assay; format: functional
[9] = Haemolytic activity in mouse RBC at 6 uM incubated for 1 hr relative to control; format: ADME, cell-based, Erythrocyte; conditions: mouse red blood cells (erythrocytes), read-out: Activity

With `CC(C)=CCC/C(C)=C/C(=O)N[C@H](CCN)C(=O)N[C@@H](CCN)C(=O)N[C@@H](CCN)C(=O)N[C@@H](CC(C)C)C(=O)N[C@H](Cc1ccccc1)C(=O)N[C@@H](CCN)C(=O)N[C@@H](CCN)C(=O)N[C@@H](CC(C)C)C(N)=O` (X2-[dDab][Dab][Dab]L[dF][Dab][Dab]L-NH2) the MIC (Candida albicans [1]) was 50 µM (≈ 52.1 µg/mL).
For `CC[C@H](C)CCCCC(=O)N[C@@H](CCN)C(=O)N[C@H](C(=O)N[C@@H](CCN)C(=O)N[C@H]1CCNC(=O)[C@H]([C@@H](C)O)NC(=O)[C@H](CCN)NC(=O)[C@H](CCN)NC(=O)[C@H](CC(C)C)NC(=O)[C@@H](Cc2ccccc2)NC(=O)[C@H](CCN)NC1=O)[C@@H](C)O` (X3-[Dab]T[Dab][Dab][Dab][dF]L[Dab][Dab]T; lactam 4-C), the MIC (Candida albicans [1]) was > 100 µM.
With `CCCC(=O)N[C@H](CCN)C(=O)N[C@@H](CCN)C(=O)N[C@@H](CCN)C(=O)N[C@@H](CC(C)C)C(=O)N[C@H](Cc1ccccc1)C(=O)N[C@@H](CCN)C(=O)N[C@@H](CCN)C(=O)N[C@@H](CC(C)C)C(N)=O` the MIC (Candida albicans [1]) was > 100 µM and the Activity (Lipid bilayer) was “inactive”.
With `CCC(C)CCC(=O)N[C@H](CCCCN)C(=O)N[C@@H](CCCCN)C(=O)N[C@@H](CCCCN)C(=O)N[C@@H](CC(C)C)C(=O)N[C@H](Cc1ccccc1)C(=O)N[C@@H](CCCCN)C(=O)N[C@@H](CCCCN)C(=O)N[C@@H](CC(C)C)C(N)=O` (stereo not given in full) the MIC (Candida albicans [1]) was > 100 µM.
With `CC(C)C[C@H](NC(=O)[C@H](CCN)NC(=O)[C@H](CCN)NC(=O)[C@@H](Cc1ccccc1)NC(=O)[C@H](CC(C)C)NC(=O)[C@H](CCN)NC(=O)[C@H](CCN)NC(=O)[C@@H](CCN)NC(=O)[C@H](N)CS)C(N)=O` the MIC (Candida albicans [1]) was > 100 µM.
In the case of `CCC(C)CCC(=O)N[C@H](CCN)C(=O)N[C@@H](CCN)C(=O)N[C@@H](CC(C)C)C(=O)N[C@H](Cc1ccccc1)C(=O)N[C@@H](CCN)C(N)=O` (stereo not given in full) ({Hexanoyl(4ξ-Me)}-[dDab][Dab]L[dF][Dab]-NH2), the MIC (Candida albicans [1]) was > 100 µM.
In the case of `CCCCCC(=O)N[C@H](CCN)C(=O)N[C@@H](CCN)C(=O)N[C@@H](CCN)C(=O)N[C@@H](CC(C)C)C(=O)N[C@H](Cc1ccccc1)C(=O)N[C@@H](CCN)C(=O)N[C@@H](CCN)C(=O)N[C@@H](CC(C)C)C(N)=O`, the MIC (Candida albicans [1]) was 100 µM (≈ 98.9 µg/mL) and the Activity (Lipid bilayer) was “inactive”.
In the case of `CCC(C)CCC(O)CC(=O)N[C@H](CCN)C(=O)N[C@H]1CCNC(=O)[C@H](CC(C)C)NC(=O)[C@H](CCN)NC(=O)[C@H](CCN)NC(=O)[C@@H](Cc2ccccc2)NC(=O)[C@H](CC(C)C)NC(=O)[C@H](CCN)NC1=O` (stereo not given in full) (X1-[dDab][Dab][Dab]L[dF][Dab][Dab]L; lactam 2-C), the Activity (Erythrocyte) was > 750 µg/mL, the LD50 at 336 h [2] was 6 mg/kg and the Activity (HEK293) was > 128 µg/mL.
With `C[C@@H]1[C@H](O)[C@@H](C)/C=C/C=C/C=C/C=C/C=C/C=C/C=C/[C@H](O[C@@H]2O[C@H](C)[C@@H](O)[C@H](N)[C@@H]2O)C[C@@H]2O[C@](O)(C[C@@H](O)C[C@@H](O)[C@H](O)CC[C@@H](O)C[C@@H](O)CC(=O)O[C@H]1C)C[C@H](O)[C@H]2C(=O)O` [AMPHOTERICIN B] the Activity (Candida albicans [3]) was “inactive”, the Activity (Candida albicans [4]) was “Active” and the MBEC50 (Candida albicans [5]) was 6.25 µM. For the same molecule, the MIC (Candida albicans [1]) was 1.56 µM (≈ 1.44 µg/mL), the Activity (Candida albicans [6]) was “Active” and the Activity (Candida albicans [7]) was “Active”. It also gave an MBIC50 (Candida albicans [8]) of 0.78 µM and a hemolysis at 1 h, 6 µM [9] of 50%.
